Laboratory results from ChEMBL document CHEMBL4828778, “Novel Compounds as PHD Inhibitors for Treating Heart, Lung, Liver, and Kidney Diseases” (ACS Med Chem Lett, 2021).

Legend:
Prolyl hydroxylase EGLN2 = Prolyl hydroxylase EGLN2 (Homo sapiens, UniProt Q96KS0); assay: Inhibition of recombinant full length human N-terminal FLAG-tagged PHD1 expressed in baculovirus expression system using HIF1/C35 complex as substrate preincubated for 30 mins followed by substrate addition measured after 10 mins by TR-FRET assay
Sequence of Prolyl hydroxylase EGLN2 (Q96KS0 whole entry, the tested form may be a part): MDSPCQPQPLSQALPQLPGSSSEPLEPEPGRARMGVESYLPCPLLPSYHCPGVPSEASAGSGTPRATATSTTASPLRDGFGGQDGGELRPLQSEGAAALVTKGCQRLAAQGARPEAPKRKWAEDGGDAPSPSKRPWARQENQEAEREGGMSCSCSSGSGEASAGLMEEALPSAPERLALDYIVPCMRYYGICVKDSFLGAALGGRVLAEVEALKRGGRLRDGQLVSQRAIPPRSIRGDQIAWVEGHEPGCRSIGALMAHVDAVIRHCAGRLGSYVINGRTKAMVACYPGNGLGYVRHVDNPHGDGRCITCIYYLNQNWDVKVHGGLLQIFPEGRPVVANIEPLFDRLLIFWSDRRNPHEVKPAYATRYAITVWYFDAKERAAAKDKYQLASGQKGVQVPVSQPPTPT

Egl nine homolog 1 = Egl nine homolog 1 (Homo sapiens, UniProt Q9GZT9); assay: Inhibition of full length human N-terminal His-tagged/TEV cleavage fused PHD2 expressed in baculovirus infected insect cells using HIF1/C35 complex as substrate preincubated for 30 mins followed by substrate addition measured after 10 mins by TR-FRET assay
Sequence of Egl nine homolog 1 (Q9GZT9 whole entry, the tested form may be a part): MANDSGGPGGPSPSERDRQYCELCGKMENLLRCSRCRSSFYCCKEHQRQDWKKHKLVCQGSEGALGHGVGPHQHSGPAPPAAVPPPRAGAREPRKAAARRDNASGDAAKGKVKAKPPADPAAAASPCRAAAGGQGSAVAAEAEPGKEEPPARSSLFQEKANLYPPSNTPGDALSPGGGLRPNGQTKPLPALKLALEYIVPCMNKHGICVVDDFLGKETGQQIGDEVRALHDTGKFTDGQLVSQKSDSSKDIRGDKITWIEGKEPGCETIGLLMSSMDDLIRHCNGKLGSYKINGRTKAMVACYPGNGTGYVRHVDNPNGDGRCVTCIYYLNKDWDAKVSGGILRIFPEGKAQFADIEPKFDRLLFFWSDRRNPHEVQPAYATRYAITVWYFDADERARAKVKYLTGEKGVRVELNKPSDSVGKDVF

Prolyl hydroxylase EGLN3 = Prolyl hydroxylase EGLN3 (Homo sapiens, UniProt Q9H6Z9); assay: Inhibition of recombinant full length human N-terminal 6His-tagged PHD3 expressed Escherichia coli using HIF1/C35 complex as substrate preincubated for 30 mins followed by substrate addition measured after 10 mins by TR-FRET assay
Sequence of Prolyl hydroxylase EGLN3 (Q9H6Z9 whole entry): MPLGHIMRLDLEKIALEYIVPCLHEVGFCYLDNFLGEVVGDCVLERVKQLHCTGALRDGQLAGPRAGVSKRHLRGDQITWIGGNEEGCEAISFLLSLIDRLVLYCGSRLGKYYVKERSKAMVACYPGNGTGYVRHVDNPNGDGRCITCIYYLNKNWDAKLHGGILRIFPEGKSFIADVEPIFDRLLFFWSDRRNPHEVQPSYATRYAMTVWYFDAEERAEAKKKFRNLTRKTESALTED

Measured: IC50

N#Cc1ccc(-c2cnn(-c3ccc(-c4nccs4)cn3)c2O)cc1
< 100 nM: Prolyl hydroxylase EGLN2 | Egl nine homolog 1 | Prolyl hydroxylase EGLN3

CCC(=O)Nc1ccc(-n2ncc(-c3ccc(C#N)cc3)c2O)nc1
< 100 nM: Prolyl hydroxylase EGLN2 | Egl nine homolog 1 | Prolyl hydroxylase EGLN3

N#Cc1ccc(-c2cnn(-c3ccc(N4CCCC4=O)cn3)c2O)cc1
< 100 nM: Prolyl hydroxylase EGLN2 | Egl nine homolog 1 | Prolyl hydroxylase EGLN3

CS(=O)(=O)c1ccc(-n2ncc(-c3ccc(C#N)cc3)c2O)nc1
< 100 nM: Prolyl hydroxylase EGLN2 | Egl nine homolog 1 | Prolyl hydroxylase EGLN3

CC(=O)c1ccc(-n2ncc(-c3ccc(C#N)cc3)c2O)nc1
< 100 nM: Prolyl hydroxylase EGLN2 | Egl nine homolog 1 | Prolyl hydroxylase EGLN3

CCS(=O)(=O)Nc1ccc(-n2ncc(-c3ccc(C#N)cc3)c2O)nc1
< 100 nM: Prolyl hydroxylase EGLN2 | Egl nine homolog 1 | Prolyl hydroxylase EGLN3
